Experimental data reported in ChEMBL document CHEMBL5338790, “Discovery of Subcellular-Targeted Aza-BODIPY Photosensitizers for Efficient Photodynamic Antitumor Therapy” (J Med Chem, 2023).
The source made the active and inactive calls. No cut-off for these calls is given here.

Tests used:
[1] = system: HUVEC; experiment: Photodynamic cytotoxicity against HUVEC cells assessed as inhibition of cell viability incubated for 3 hrs followed by photo-irradiation at 54 J/cm2 measured after 24 hrs by CCK8 assay; format: functional, cell-based; conditions: Homo sapiens, light or radiation study
[2] = system: HeLa; experiment: Induction of apoptosis in human HeLa cells assessed as necrotic cells at 50 nM incubated for 3 hrs with photo-irradiation at 54 J/cm2 by Annexin V-FITC/PI staining based flow cytometry relative to control; format: functional
[3] = Toxicity in Balb/C nu/nu mouse xenografted with human HeLa cells assessed as change in liver histology at 2.5 umol/kg, iv with photo-irradiation at 30 J/cm2 after 1 hr of compound administration measured after 24 days by H and E staining based analysis; format: organism-based; conditions: in vivo, 576 h, dose 2.5 µmol/kg, time 24 day
[4] = system: HeLa; experiment: Antitumor activity against human HeLa cells xenografted in Balb/C nu/nu mouse assessed as reduction in tumor histology at 2.5 umol/kg, iv with photo-irradiation at 30 J/cm2 after 1 hr of compound administration measured after 24 days by H and E staining based analysis; format: functional, organism-based; conditions: dose 2.5 µmol/kg, time 24.0 day
[5] = system: HeLa; experiment: Induction of apoptosis in human HeLa cells assessed as viable cells at 100 nM incubated for 3 hrs with photo-irradiation at 54 J/cm2 by Annexin V-FITC/PI staining based flow cytometry relative to control; format: functional; conditions: light or radiation study, read-out: Activity
[6] = Drug distribution in Balb/C nu/nu mouse xenografted with human HeLa cells at 2.5 umol/kg, iv measured for 24 hr by IVIS imaging analysis; format: ADME, organism-based; conditions: in vivo, dose 2.5 µmol/kg
[7] = Toxicity in Balb/C nu/nu mouse xenografted with human HeLa cells assessed as drug tolerance at 2.5 umol/kg, iv with photo-irradiation at 30 J/cm2 after 1 hr of compound administration measured for 24 days; format: organism-based; conditions: in vivo, 576 h, dose 2.5 µmol/kg, time 24 day
[8] = system: HeLa; experiment: Induction of apoptosis in human HeLa cells assessed as early apoptotic cells at 100 nM incubated for 3 hrs by Annexin V-FITC/PI staining based flow cytometry relative to control; format: toxicity, cell-based; conditions: 0.1 µM
[9] = Drug uptake in human HeLa cells at 5 uM incubated for 3 hrs by confocal scanning microscopy; format: ADME, cell-based
[10] = Drug localization in endoplasmic reticulum of human HeLa cells at 5 uM incubated for 30 mins by ER-Tracker Green dye based confocal scanning microscopic analysis; format: ADME; conditions: 0.5 h
[11] = system: HeLa; experiment: Induction of apoptosis in human HeLa cells assessed as increase in percentage of apoptosis/necrosis at 100 nM incubated for 3 hrs with photo-irradiation at 54 J/cm2 by Annexin V-FITC/PI staining based flow cytometry relative to control; format: functional
[12] = Drug distribution in Balb/C nu/nu mouse xenografted with human HeLa cells at 2.5 umol/kg, iv measured for 1 hr by IVIS imaging analysis; format: ADME, organism-based; conditions: in vivo, dose 2.5 µmol/kg
[13] = system: HeLa; experiment: Induction of apoptosis in human HeLa cells assessed as increase in percentage of apoptosis/necrosis at 12.5 nM incubated for 3 hrs with photo-irradiation at 54 J/cm2 by Annexin V-FITC/PI staining based flow cytometry relative to control; format: functional
[14] = Drug distribution in lungs of Balb/C nu/nu mouse xenografted with human HeLa cells at 2.5 umol/kg, iv measured for 1 hr by IVIS imaging analysis; format: ADME, organism-based, Lung; conditions: in vivo, dose 2.5 µmol/kg
[15] = Drug distribution in heart of Balb/C nu/nu mouse xenografted with human HeLa cells at 2.5 umol/kg, iv measured for 1 hr by IVIS imaging analysis; format: ADME, organism-based; conditions: in vivo, dose 2.5 µmol/kg
[16] = system: HeLa; experiment: Induction of apoptosis in human HeLa cells assessed as late apoptotic cells at 100 nM incubated for 3 hrs by Annexin V-FITC/PI staining based flow cytometry relative to control; format: toxicity, cell-based; conditions: 0.1 µM
[17] = Cytotoxicity against human HeLa cells assessed as inhibition of cell viability under dark condition incubated for 27 hrs by CCK8 assay; format: toxicity, cell-based
[18] = Drug distribution in liver of Balb/C nu/nu mouse xenografted with human HeLa cells at 2.5 umol/kg, iv measured for 1 hr by IVIS imaging analysis; format: ADME, organism-based; conditions: in vivo, dose 2.5 µmol/kg
[19] = system: HeLa; experiment: Induction of apoptosis in human HeLa cells assessed as early apoptotic cells at 50 nM incubated for 3 hrs with photo-irradiation at 54 J/cm2 by Annexin V-FITC/PI staining based flow cytometry relative to control; format: functional
[20] = system: HeLa; experiment: Induction of ROS production in human HeLa cells upto 200 nM preincubated for 2 hrs followed by H2DCFDA probe exposure for 30 mins and subsequent removal of probe with photo-irradiation at 16 J/cm2 by confocal scanning microscopic analysis; format: functional, cell-based; conditions: time 2.5 hrs
[21] = Drug distribution in spleen of Balb/C nu/nu mouse xenografted with human HeLa cells at 2.5 umol/kg, iv measured for 24 hr by IVIS imaging analysis; format: ADME, organism-based; conditions: in vivo, dose 2.5 µmol/kg
[22] = Drug uptake in human HeLa cells at 5 uM by confocal scanning microscopy; format: ADME, cell-based; conditions: 3 h, TDE = time-dependent effect
[23] = system: HeLa; experiment: Induction of apoptosis in human HeLa cells assessed as viable cells at 100 nM incubated for 3 hrs by Annexin V-FITC/PI staining based flow cytometry relative to control; format: toxicity, cell-based; conditions: read-out: Activity
[24] = Drug distribution in tumor of Balb/C nu/nu mouse xenografted with human HeLa cells at 2.5 umol/kg, iv measured for 24 hr by IVIS imaging analysis; format: ADME, organism-based, Neoplasm; conditions: in vivo, dose 2.5 µmol/kg
[25] = system: HeLa; experiment: Induction of apoptosis in human HeLa cells assessed as early apoptotic cells at 100 nM incubated for 3 hrs with photo-irradiation at 54 J/cm2 by Annexin V-FITC/PI staining based flow cytometry relative to control; format: functional
[26] = Drug distribution in liver of Balb/C nu/nu mouse xenografted with human HeLa cells at 2.5 umol/kg, iv measured for 24 hr by IVIS imaging analysis; format: ADME, organism-based; conditions: in vivo, dose 2.5 µmol/kg
[27] = Toxicity in Balb/C nu/nu mouse xenografted with human HeLa cells assessed as change in lung histology at 2.5 umol/kg, iv with photo-irradiation at 30 J/cm2 after 1 hr of compound administration measured after 24 days by H and E staining based analysis; format: organism-based; conditions: in vivo, 576 h, dose 2.5 µmol/kg, time 24 day
[28] = Drug distribution in heart of Balb/C nu/nu mouse xenografted with human HeLa cells at 2.5 umol/kg, iv measured for 24 hr by IVIS imaging analysis; format: ADME, organism-based; conditions: in vivo, dose 2.5 µmol/kg
[29] = Drug distribution in kidneys of Balb/C nu/nu mouse xenografted with human HeLa cells at 2.5 umol/kg, iv measured for 1 hr by IVIS imaging analysis; format: ADME, organism-based, Kidney; conditions: in vivo, dose 2.5 µmol/kg
[30] = Drug accumulation in tumor of Balb/C nu/nu mouse xenografted with human HeLa cells at 2.5 umol/kg, iv measured for 3 hrs by IVIS imaging analysis; format: ADME, organism-based, Neoplasm; conditions: in vivo, dose 2.5 µmol/kg
[31] = system: B16-F10; experiment: Photodynamic cytotoxicity against mouse B16-F10 cells assessed as inhibition of cell viability incubated for 3 hrs followed by photo-irradiation at 54 J/cm2 measured after 24 hrs by CCK8 assay; format: functional, cell-based; conditions: B16-F10, light or radiation study
[32] = Drug concentration in plasma of Balb/C nu/nu mouse xenografted with human HeLa cells at 2.5 umol/kg, iv measured after 24 hr by IVIS imaging analysis; format: ADME, organism-based; conditions: in vivo, at 2.5 µmol/kg

Drug uptake [6]: Not Active | Drug uptake [9]: Active | Drug uptake [10]: Not Active | Drug uptake [12]: Active | Drug uptake [14]: Active | Drug uptake [15]: Active | Drug uptake [18]: Active | Drug uptake [21]: Not Active | Drug uptake [22]: Tde | Drug uptake [24]: Not Active | Drug uptake [26]: Not Active | Drug uptake [28]: Not Active | Drug uptake [29]: Active | Drug uptake [30]: Active | Drug uptake [32]: 1%
SMILES: COc1ccc2c(c1)CCc1c(-c3ccccc3)c3n(c1-2)[B-](F)(F)[N+]1=C(c2ccc(OCC(=O)NCCCN4CCOCC4)cc2)C(I)=C(c2ccccc2)C1=N3
IC50 [1]: 11.9 nM | Activity [2]: 2.08% | Activity [3]: Non-Toxic | Activity [4]: Active | viability at 0.1 µM [5]: 9.73% | Activity [7]: Non-Toxic | Activity [8]: 1.52% | Activity [11]: 64.6% | Activity [13]: 10.9% | Activity [16]: 5.79% | IC50 at 27 h [17]: > 50000 nM | Activity [19]: 58.93% | Activity [20]: Active | viability at 0.1 µM [23]: 91.7% | Activity [25]: 73.1% | Activity [27]: Non-Toxic | IC50 [31]: 7.2 nM
